Laboratory results reported in patent US20020137929A1, “1 - (3-heterocyclylphenyl) isothiourea, -isourea, -guanidine and -amidine herbicidal agents” (Intellectual Property Department, BASF Aktiengesellschaft, priority 1998, published 2002).

Key:
ORYSAT (Rice, Tebonnet) [1] = experiment: Preemergence herbicidal evaluation; assay type: in vivo, Oryza sativa, (L.) Tebonnet; settings: rated 4-5 weeks after treatment, rating scale 0-9
Procedure, shortened: (§1)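 Each species is sown separately in potting soil over roughly an inch of soil before any emergence. The soil surface then receives an aqueous acetone spray delivering about 0.0156 to 0.500 kg/ha of compound. After four to five weeks, injury is scored from 0 to 9 relative to a control.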

SETVI (Foxtail, Green) = experiment: Preemergence herbicidal evaluation; assay type: in vivo, Setaria viridis; settings: rated 4-5 weeks after treatment, rating scale 0-9
Procedure, shortened: as §1

CYPIR (Rice Flatsedge) = experiment: Preemergence weed control under flooded paddy conditions; assay type: in vivo, Cyperus iria; settings: rated 3-4 weeks after treatment
Procedure, shortened: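 First, seeds or propagules go into the top 0.5 cm of silt loam; next, water is held 1.5 to 3 cm over the soil; then compound (50/50 acetone/water) is pipetted into it at about 0.0313 to 0.500 kg/ha; finally plants are rated visually 0-9 after three to four weeks.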

ECHCG (Barnyardgrass) = experiment: Postemergence herbicidal evaluation; assay type: in vivo, Echinochloa crus-galli; settings: postemergence
Procedure, shortened: (§2)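 Compound is applied as a foliar spray to seedlings about two weeks old, formulated in equal parts acetone and water with 0.5% TWEEN 20 and delivered at 40 psi to give about 0.0156–0.500 kg per hectare. Injury is rated visually 0–9 after four to five weeks.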

GALAP (Galium) = experiment: Preemergence herbicidal evaluation; assay type: in vivo, Galium aparine; settings: rated 4-5 weeks after treatment, rating scale 0-9
Procedure, shortened: as §1

MOOVA (Monochoria) = experiment: Preemergence weed control under flooded paddy conditions; assay type: in vivo, Monochoria vaginalis; settings: rated 3-4 weeks after treatment
Procedure, shortened: (§3)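 Herbicidal effect is scored visually on a 0-9 scale against an untreated control, three to four weeks after compounds are pipetted into the flood water (1.5 to 3 cm deep) over seeds planted in silt loam at 0.5 cm depth. Rates: about 0.0313 to 0.500 kg/ha.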

[2] = tested on: TRZAWR (Wheat, Winter, cv Riband); experiment: Preemergence herbicidal evaluation; assay type: in vivo, Triticum aestivum; settings: rated 4-5 weeks after treatment, rating scale 0-9
Procedure, shortened: as §1

[3] = tested on: CHEAL (Lambsquarters, Common); experiment: Postemergence herbicidal evaluation; assay type: in vivo, Chenopodium album; settings: postemergence
Procedure, shortened: as §2

ZEAMX (Corn, Field) = experiment: Preemergence herbicidal evaluation; assay type: in vivo, Zea mays; settings: rated 4-5 weeks after treatment, rating scale 0-9
Procedure, shortened: as §1

[4] = tested on: GLXMAW (Soybean, Williams); experiment: Preemergence herbicidal evaluation; assay type: in vivo, Glycine max, (L.) Merr. cv Williams; settings: rated 4-5 weeks after treatment, rating scale 0-9
Procedure, shortened: as §1

CASOB (Sicklepod) = experiment: Postemergence herbicidal evaluation; assay type: in vivo, Cassia obtusifolia; settings: postemergence
Procedure, shortened: as §2

[5] = tested on: SAGPY (Arrowhead (Pygmaea)); experiment: Preemergence weed control under flooded paddy conditions; assay type: in vivo, Sagittaria pygmaea; settings: rated 3-4 weeks after treatment
Procedure, shortened: as §3

ORYSAT (Rice, Tebonnet) [6] = experiment: Postemergence herbicidal evaluation; assay type: in vivo, Oryza sativa, (L.) Tebonnet; settings: postemergence
Procedure, shortened: as §2

Compound: Cc1cccc(CN2C(=O)CSC2=Nc2cc(-n3c(=O)cc(C(F)(F)F)n(C)c3=O)c(F)cc2Cl)c1 [Compound 130, 3-{4-Chloro-2-fluoro-5-{[3-(m-methylbenzyl)-4-oxo-2-thiazolidinylidene]amino}phenyl}-1-methyl-6-(trifluoromethyl)-2,4 (1H, 3H)-pyrimidinedione]
- Preemergence herbicidal rating ORYSAT (ORYSAT (Rice, Tebonnet) [1]; rate 0.0156 kg/ha): 0.0
- Preemergence herbicidal rating ORYSAT (ORYSAT (Rice, Tebonnet) [1]; rate 0.0313 kg/ha): 0.0
- Preemergence herbicidal rating ORYSAT (ORYSAT (Rice, Tebonnet) [1]; rate 0.0625 kg/ha): 1.0
- Preemergence herbicidal rating ORYSAT (ORYSAT (Rice, Tebonnet) [1]; rate 0.1250 kg/ha): 3.0
- Preemergence herbicidal rating ORYSAT (ORYSAT (Rice, Tebonnet) [1]; rate 0.2500 kg/ha): 6.0
- Preemergence herbicidal rating SETVI (SETVI (Foxtail, Green); rate 0.0156 kg/ha): 0.0
- Preemergence herbicidal rating SETVI (SETVI (Foxtail, Green); rate 0.0313 kg/ha): 6.0
- Preemergence herbicidal rating SETVI (SETVI (Foxtail, Green); rate 0.0625 kg/ha): 7.0
- Preemergence herbicidal rating SETVI (SETVI (Foxtail, Green); rate 0.1250 kg/ha): 7.0
- Preemergence herbicidal rating SETVI (SETVI (Foxtail, Green); rate 0.2500 kg/ha): 9.0
- herbicidal effect rating, CYPIR (CYPIR (Rice Flatsedge); 0.0313 kg/ha): 0.0
- herbicidal effect rating, CYPIR (CYPIR (Rice Flatsedge); 0.0625 kg/ha): 2.0
- herbicidal effect rating, CYPIR (CYPIR (Rice Flatsedge); 0.1250 kg/ha): 4.0
- herbicidal effect rating, CYPIR (CYPIR (Rice Flatsedge); 0.2500 kg/ha): 6.0
- herbicidal rating ECHCG (ECHCG (Barnyardgrass); rate 0.0156 kg/ha): 2.0
- herbicidal rating ECHCG (ECHCG (Barnyardgrass); rate 0.0313 kg/ha): 2.0
- herbicidal rating ECHCG (ECHCG (Barnyardgrass); rate 0.0625 kg/ha): 3.0
- Preemergence herbicidal rating GALAP (GALAP (Galium); rate 0.0156 kg/ha): 0.0
- Preemergence herbicidal rating GALAP (GALAP (Galium); rate 0.0625 kg/ha): 0.0
- Preemergence herbicidal rating GALAP (GALAP (Galium); rate 0.1250 kg/ha): 2.0
- Preemergence herbicidal rating GALAP (GALAP (Galium); rate 0.2500 kg/ha): 2.0
- herbicidal effect rating, MOOVA (MOOVA (Monochoria); 0.0313 kg/ha): 0.0
- herbicidal effect rating, MOOVA (MOOVA (Monochoria); 0.0625 kg/ha): 0.0
- herbicidal effect rating, MOOVA (MOOVA (Monochoria); 0.1250 kg/ha): 6.0
- herbicidal effect rating, MOOVA (MOOVA (Monochoria); 0.2500 kg/ha): 6.0
- Preemergence herbicidal rating TRZAWR ([2]; rate 0.0156 kg/ha): 0.0
- Preemergence herbicidal rating TRZAWR ([2]; rate 0.0313 kg/ha): 0.0
- Preemergence herbicidal rating TRZAWR ([2]; rate 0.0625 kg/ha): 1.0
- Preemergence herbicidal rating TRZAWR ([2]; rate 0.1250 kg/ha): 3.0
- Preemergence herbicidal rating TRZAWR ([2]; rate 0.2500 kg/ha): 6.0
- herbicidal rating CHEAL ([3]; rate 0.0156 kg/ha): 7.0
- herbicidal rating CHEAL ([3]; rate 0.0313 kg/ha): 9.0
- herbicidal rating CHEAL ([3]; rate 0.0625 kg/ha): 9.0
- Preemergence herbicidal rating ZEAMX (ZEAMX (Corn, Field); rate 0.0156 kg/ha): 0.0
- Preemergence herbicidal rating ZEAMX (ZEAMX (Corn, Field); rate 0.0313 kg/ha): 1.0
- Preemergence herbicidal rating ZEAMX (ZEAMX (Corn, Field); rate 0.0625 kg/ha): 4.0
- Preemergence herbicidal rating ZEAMX (ZEAMX (Corn, Field); rate 0.1250 kg/ha): 7.0
- Preemergence herbicidal rating ZEAMX (ZEAMX (Corn, Field); rate 0.2500 kg/ha): 9.0
- Preemergence herbicidal rating GLXMAW ([4]; rate 0.0156 kg/ha): 0.0
- Preemergence herbicidal rating GLXMAW ([4]; rate 0.0313 kg/ha): 0.0
- Preemergence herbicidal rating GLXMAW ([4]; rate 0.0625 kg/ha): 2.0
- Preemergence herbicidal rating GLXMAW ([4]; rate 0.1250 kg/ha): 3.0
- Preemergence herbicidal rating GLXMAW ([4]; rate 0.2500 kg/ha): 5.0
- herbicidal rating CASOB (CASOB (Sicklepod); rate 0.0156 kg/ha): 2.0
- herbicidal rating CASOB (CASOB (Sicklepod); rate 0.0313 kg/ha): 4.0
- herbicidal rating CASOB (CASOB (Sicklepod); rate 0.0625 kg/ha): 5.0
- herbicidal effect rating, SAGPY ([5]; 0.0313 kg/ha): 4.0
- herbicidal effect rating, SAGPY ([5]; 0.0625 kg/ha): 4.0
- herbicidal effect rating, SAGPY ([5]; 0.1250 kg/ha): 0.0
- herbicidal effect rating, SAGPY ([5]; 0.2500 kg/ha): 3.0
- herbicidal rating ORYSAT (ORYSAT (Rice, Tebonnet) [6]; rate 0.0156 kg/ha): 3.0
- herbicidal rating ORYSAT (ORYSAT (Rice, Tebonnet) [6]; rate 0.0313 kg/ha): 3.0
- herbicidal rating ORYSAT (ORYSAT (Rice, Tebonnet) [6]; rate 0.0625 kg/ha): 3.5
